Assay results taken from the supplement of paper PMC10307832.

How the values were obtained:
Experiment in all cases: relative viability (nuclei count vs DMSO), 5 days (fraction); higher = more cells survive
[1] = compound: CCN1C(=O)C2=CC(=C(N=C2N(C1=O)C3CC3)N)C(=O)N + CC(C)C[C@H](NC(=O)[C@H](Cc1ccccc1)NC(=O)c1cnccn1)B(O)O [Bortezomib] (partner 0.002 µM)
In short: (§1)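 A single step with final 0.05% Triton X-100, 1% formaldehyde and 1 ug/ml Hoechst fixed the cells and stained nuclei 5 days after treatment. Lung cancer cell lines in 1536-well plates had been treated by pin tool the day after seeding with one drug alone or a fixed anchor-drug dose plus five library-drug doses (not always all listed) in √10 steps, and nuclei were counted on 4× images. Relative viability is the ratio of nuclei in treated wells to nuclei in vehicle wells, taken as the median of duplicate plates.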

[2] = compound: CCN1C(=O)C2=CC(=C(N=C2N(C1=O)C3CC3)N)C(=O)N + COc1cccc2cc(-c3nc([C@H]4CC[C@H](C(=O)O)CC4)n4ncnc(N)c34)[nH]c12 [OSI-027] (partner 0.5 µM)
In short: as §1

[3] = compound: CCN1C(=O)C2=CC(=C(N=C2N(C1=O)C3CC3)N)C(=O)N + CS(=O)(=O)CCNCc1ccc(-c2ccc3ncnc(Nc4ccc(OCc5cccc(F)c5)c(Cl)c4)c3c2)o1 [Lapatinib] (partner 2 µM)
In short: as §1

[4] = compound: CCN1C(=O)C2=CC(=C(N=C2N(C1=O)C3CC3)N)C(=O)N + CS(=O)(=O)N1CCN(Cc2cc3nc(-c4cccc5[nH]ncc45)nc(N4CCOCC4)c3s2)CC1 [Pictilisib] (partner 1 µM)
In short: as §1

[5] = compound: CCN1C(=O)C2=CC(=C(N=C2N(C1=O)C3CC3)N)C(=O)N + CC1(C)CCC(c2ccc(Cl)cc2)=C(CN2CCN(c3ccc(C(=O)NS(=O)(=O)c4ccc(N[C@H](CCN5CCOCC5)CSc5ccccc5)c(S(=O)(=O)C(F)(F)F)c4)cc3)CC2)C1 [Navitoclax] (partner 0.5 µM)
In short: as §1

Cell Line	relative viability ([1]; first compound 0.253 µM)	relative viability ([1]; first compound 0.8 µM)	relative viability ([1]; first compound 2.53 µM)	relative viability ([1]; first compound 8 µM)	relative viability ([2]; first compound 0.253 µM)	relative viability ([2]; first compound 0.8 µM)	relative viability ([2]; first compound 2.53 µM)	relative viability ([2]; first compound 8 µM)	relative viability ([3]; first compound 0.253 µM)	relative viability ([3]; first compound 0.8 µM)	relative viability ([3]; first compound 2.53 µM)	relative viability ([3]; first compound 8 µM)	relative viability ([4]; first compound 0.253 µM)	relative viability ([4]; first compound 0.8 µM)	relative viability ([4]; first compound 2.53 µM)	relative viability ([4]; first compound 8 µM)	relative viability ([5]; first compound 0.253 µM)	relative viability ([5]; first compound 0.8 µM)	relative viability ([5]; first compound 2.53 µM)	relative viability ([5]; first compound 8 µM)
NCI-H650	1.03	0.701	0.935	0.701	0.527	0.46	0.516	0.457	1.03	0.883	1.07	0.872	0.997	0.922	0.684	0.893				
NCI-H2009	0.963	1.09	0.965	0.94	0.634	0.622	0.619	0.621	0.93	1.23	0.892	0.847	0.874	0.803	0.8	0.771	1.15	1.14	1.11	1.08
EPLC-272H	0.828	0.75	0.827	1	0.277	0.258	0.266	0.277	0.834	0.867	0.932	1.13	0.296	0.288	0.389	0.333	0.994	1.26	1.13	1.2
NCI-H520	0.574	0.574	0.743	0.612	0.296	0.315	0.346	0.304	0.898	0.907	0.957	0.941	0.273	0.302	0.317	0.27	1.04	1.22	1.02	1.41
NCI-H2405	1	1.05	1.01	0.952	0.664	0.667	0.604	0.616	1.21	1.16	1.08	1.01	0.456	0.464	0.424	0.479	1.13	0.882	1.01	1.07
NCI-H2085	0.971	1.1	1.04	0.996	0.728	0.691	0.738	0.684	0.721	0.782	0.743	0.68	0.418	0.397	0.444	0.42	1.15	1.1	1.2	0.997
NCI-H322M	1.25	0.701	1.25	1.14	0.498	0.498	0.512	0.549	0.585	0.536	0.562	0.592	0.452	0.504	0.486	0.488	1.06	1.12	1.14	1.13
NCI-H1944					0.4	0.399	0.473	0.378	0.873	0.679	0.818	0.756	0.354	0.354	0.342	0.308	1.02	1.04	0.978	1.02
LC-2-ad	0.922	0.965	1.02	1.07	0.693	0.808	0.759	0.829	0.841	0.747	0.943	0.903	0.465	0.409	0.514	0.506	0.416	0.45	0.462	0.518
NCI-H358					0.85	0.818	0.779	0.814	0.424	0.417	0.526	0.612	0.4	0.343	0.284	0.424				
NCI-H2170					0.278	0.707	0.72	0.664	0.253	0.257	0.263	0.255	0.297	0.326	0.295	0.335	0.576	0.544	0.608	0.595
A-427	0.938	0.963	0.965	0.956	0.46	0.487	0.49	0.466	1.06	0.963	1.05	1.01	0.724	0.578	0.645	0.727	0.994	0.965	0.95	0.98
NCI-H1666	0.739	0.692	0.848	0.74		0.838	0.863	0.834	0.831	0.495	0.633	0.736	0.42	0.377	0.391	0.359	0.991	0.942	0.645	0.867
LOU-NH91	0.565	0.502	0.516	0.496	0.637	0.66	0.766	0.692	0.869	0.732	0.83	0.766	0.509	0.516	0.541	0.538	0.656	0.68	0.701	0.689
ABC-1	0.298	0.325	0.312	0.266	0.438	0.474	0.538	0.469	1.08	1.4	0.969	1.29	0.761	0.667	0.82	0.699				
NCI-H1651	0.996	0.897	0.964	0.858	0.643	0.691	0.734	0.606	0.749	0.78	0.936	0.834	0.552	0.581	0.461	0.595	0.996	1.27	0.969	1.03
201T	1.1	1.07	1.09	1.05	0.431	0.729	0.761	0.667	1.03	0.949	0.967	0.98	0.688	0.621	0.722	0.635	1.26	1.21	1.14	1.22
